# Laboratory results taken from US20140255392A1 (BAYER INTELLECTUAL PROPERTY GMBH, priority 2011, published 2014).
# Target: T1, human kinase Mps-1 (Homo sapiens, UniProt P33981)
# T1 construct: N-terminally GST-tagged human full length recombinant Mps-1 kinase; GST (N); purchased Invitrogen, Karslruhe, Germany PV4071
# T1 sequence (P33981 1-857): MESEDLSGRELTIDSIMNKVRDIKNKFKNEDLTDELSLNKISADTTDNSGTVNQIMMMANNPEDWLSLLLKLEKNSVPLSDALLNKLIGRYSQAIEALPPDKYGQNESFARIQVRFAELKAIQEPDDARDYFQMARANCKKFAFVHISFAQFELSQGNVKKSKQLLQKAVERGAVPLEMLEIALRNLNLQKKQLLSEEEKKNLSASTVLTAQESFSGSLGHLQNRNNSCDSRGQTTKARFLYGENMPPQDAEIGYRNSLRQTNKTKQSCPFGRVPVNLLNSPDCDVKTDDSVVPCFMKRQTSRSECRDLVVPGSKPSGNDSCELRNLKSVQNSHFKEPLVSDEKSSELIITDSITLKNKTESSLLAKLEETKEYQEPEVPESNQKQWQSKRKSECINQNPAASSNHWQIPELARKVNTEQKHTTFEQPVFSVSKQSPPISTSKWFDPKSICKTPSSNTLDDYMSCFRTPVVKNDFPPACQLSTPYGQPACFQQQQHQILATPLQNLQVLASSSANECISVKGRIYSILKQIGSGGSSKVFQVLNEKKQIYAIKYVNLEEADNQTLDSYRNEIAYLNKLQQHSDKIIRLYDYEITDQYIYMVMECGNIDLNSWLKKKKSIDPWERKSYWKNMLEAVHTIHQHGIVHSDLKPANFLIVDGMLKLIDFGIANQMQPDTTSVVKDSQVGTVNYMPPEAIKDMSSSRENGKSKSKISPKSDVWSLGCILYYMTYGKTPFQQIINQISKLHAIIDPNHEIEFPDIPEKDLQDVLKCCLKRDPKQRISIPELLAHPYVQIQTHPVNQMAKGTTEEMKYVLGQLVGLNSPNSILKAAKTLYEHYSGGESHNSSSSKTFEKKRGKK
# Assay: Mps-1 kinase assay (TR-FRET)
# Format: biochemical
# Conditions: N-terminally GST-tagged human full length recombinant Mps-1; 10 μM ATP; 1 μM peptide substrate; 60 min at 22° C.
# Method in brief: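 Read-out: TR-FRET from Europium-labelled anti-phospho(Ser/Thr) antibody to SA-XLent after 1 h detection incubation at 22° C. Inhibition of kinase activity measured.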
row,SMILES,IC50
1,"Cc1cc(-c2cnc3c(NCCC(F)(F)F)cc(Oc4cccc(Cl)c4)cn23)ccc1C(=O)NC1CC1F (single isomer, unassigned) [Example 39 (ent.-A or A), 4-{6-(3-chlorophenoxy)-8-[(3,3,3-trifluoropropyl)amino]imidazo[1,2-a]pyridin-3-yl}-N-{[1R,2R) or (1S,2S)]-2-fluorocyclopropyl}-2-methylbenzamide]",4.9 nM
2,"Cc1cc(-c2cnc3c(NCCC(F)(F)F)cc(Oc4cccc(Cl)c4)cn23)ccc1C(=O)NC1(C#N)CC1 [Example 37, 4-{6-(3-chlorophenoxy)-8-[(3,3,3-trifluoropropyl)amino]imidazo[1,2-a]pyridin-3-yl}-N-(1-cyanocyclopropyl)-2-methylbenzamide]",23 nM
3,"Cc1cc(-c2cnc3c(NCCC(F)(F)F)cc(Oc4cccc(OC(F)(F)F)c4)cn23)ccc1C(=O)NC1(C)CC1 [Example 76, 2-Methyl-N-(1-methylcyclopropyl)-4-{6-[3-(trifluoromethoxy)phenoxy]-8-[(3,3,3-trifluoropropyl)amino]imidazo[1,2-a]pyridin-3-yl}benzamide]",105 nM
4,Cc1cc(-c2cnc3c(NCCC(F)(F)F)cc(S(C)(=O)=O)cn23)ccc1C(=O)NC1CC1 [Example 5-1],84.1 nM
5,"COc1ccc(Oc2cc(NCCC(F)(F)F)c3ncc(-c4ccc(C(=O)NC5CC5)c(C)c4)n3c2)cc1F [Example 42, N-cyclopropyl-4-{6-(3-fluoro-4-methoxyphenoxy)-8-[(3,3,3-trifluoroprorwl)amino]imidazo[1,2-a]pyridin-3-yl}-2-methylbenzamide]",0.4 nM
6,"Cc1cc(-c2cnc3c(NCCC(F)(F)F)cc(-c4ccccc4O)cn23)ccc1C(=O)N[C@H]1C[C@@H]1F (relative stereo) [Example 135, N-[rel-(1S,2S)-2-fluorocyclopropyl]-4-{6-(2-hydroxyphenyl)-8-[(3,3,3-trifluoropropyl)amino]imidazo[1,2-a]pyridin-3-yl}-2-methylbenzamide]",8.4 nM
7,"Cc1cc(-c2cnc3c(NCCC(F)(F)F)cc(Oc4cccc(Cl)c4)cn23)ccc1C(=O)N[C@@H]1C[C@H]1F (relative stereo) [Example 39 (rac.-A), 4-{6-(3-chlorophenoxy)-8-[(3,3,3-trifluoropropyl)amino]imidazo[1,2-a]pyridin-3-yl}-N-[rel-(1R,2R)-2-fluorocyclopropyl]-2-methylbenzamide]",3.1 nM
8,"CNC(=O)c1ccc(-c2cnc3c(NCCC(F)(F)F)cc(Oc4ccc(OC)c(F)c4)cn23)cc1C [Example 106, 4-{6-(3-Fluoro-4-methoxyphenoxy)-8-[(3,3,3-trifluoropropyl)amino]imidazo[1,2-a]pyridin-3-yl}-N,2-dimethylbenzamide]",1.6 nM
9,"C#Cc1cc(NCCC(F)(F)F)c2ncc(-c3ccc(C(=O)N[C@@H]4C[C@H]4F)c(C)c3)n2c1 (relative stereo) [Example 16, 4-{6-ethynyl-8-[(3,3,3-trifluoropropyl)amino]imidazo[1,2-a]pyridin-3-yl}-N-[rel-(1R,2R)-2-fluorocyclopropyl]-2-methylbenzamide]",29.4 nM
10,"COc1ncc(Oc2cc(NCCC(F)(F)F)c3ncc(-c4ccc(C(=O)NC5CC5)c(C)c4)n3c2)cc1F [Example 178, N-cyclopropyl-4-{6-[(5-fluoro-6-methoxypyridin-3-yl)oxy]-8-[(3,3,3-trifluoropropyl)amino]imidazo[1,2-a]pyridin-3-yl}-2-methylbenzamide]",2.2 nM
11,"COc1c(F)cccc1Oc1cc(NCCC(F)(F)F)c2ncc(-c3ccc(C(=O)NC4CC4)c(C)c3)n2c1 [Example 146, N-cyclopropyl-4-{6-(3-fluoro-2-methoxyphenoxy)-8-[(3,3,3-trifluoropropyl)amino]imidazo[1,2-a]pyridin-3-yl}-2-methylbenzamide]",3.2 nM
12,"Cc1cc(-c2cnc3c(NCCC(F)(F)F)cc(-c4ccc(C(=O)NC5(C)CC5)c(C)c4)cn23)ccc1C(=O)NC1CC1 [Example 149, 4-{3-[4-(cyclopropylcarbamoyl)-3-methylphenyl]-8-[(3,3,3-trifluoropropyl)amino]imidazo[1,2-a]pyridin-6-yl}-2-methyl-N-(1-methylcyclopropyl)benzamide]",3 nM
13,"Cc1cc(-c2cnc3c(NCCC(F)(F)F)cc(Oc4cccc(F)c4)cn23)ccc1C(=O)NC1CC1F (single isomer, unassigned) [Example 12 (ent.-A or A), N-{[(1R,2R) or (1S,2S)]-2-fluorocyclopropyl}-4-{6-(3-fluorophenoxy)-8-[(3,3,3-trifluoropropyl)amino]imidazo[1,2-a]pyridin-3-yl}-2-methylbenzamide]",0.7 nM
14,"CNC(=O)c1ccc(-c2cnc3c(NCC4CCOCC4)cc(Oc4ccc(OC)c(F)c4)cn23)cc1C [Example 121, 4-{6-(3-Fluoro-4-methoxyphenoxy)-8-[(tetrahydro-2H-pyran-4-ylmethyl)amino]imidazo[1,2-a]pyridin-3-yl}-N,2-dimethylbenzamide]",1.5 nM
15,"Cc1cc(-c2cnc3c(NCCC(F)(F)F)cc(Oc4cc(F)ccc4O)cn23)ccc1C(=O)NC1CC1 [Example 175, N-cyclopropyl-4-{6-(5-fluoro-2-hydroxyphenoxy)-8-[(3,3,3-trifluoropropyl)amino]imidazo[1,2-a]pyridin-3-yl}-2-methylbenzamide]",3 nM
16,"Cc1cc(-c2cnc3c(NCCC(F)(F)F)cc(Sc4cccc(F)c4F)cn23)ccc1C(=O)NC1CC1 [Example 3-2, N-cyclopropyl-4-{6-[(2,3-difluorophenyl)sulfanyl]-8-[(3,3,3-trifluoropropyl)amino]imidazo[1,2-a]pyridin-3-yl}-2-methylbenzamide]",0.3 nM
17,"CCNC(=O)c1ccc(-c2cnc3c(NCCC(F)(F)F)cc(Oc4ccc(OC)c(F)c4)cn23)cc1C [Example 107, N-ethyl-4-{6-(3-fluoro-4-methoxyphenoxy)-8-[(3,3,3-trifluoropropyl)amino]imidazo[1,2-a]pyridin-3-yl}-2-methylbenzamide]",1.8 nM
18,"COCCNc1cc(Oc2cccc(F)c2F)cn2c(-c3ccc(C(=O)NC4CC4)c(C)c3)cnc12 [Example 173, N-cyclopropyl-4-{6-(2,3-difluorophenoxy)-8-[(2-methoxyethyl)amino]imidazo[1,2-a]pyridin-3-yl}-2-methylbenzamide]",8.2 nM
19,"Cc1cc(-c2cnc3c(NCC(F)F)cc(Oc4cccc(F)c4F)cn23)ccc1C(=O)NC1CC1 [Example 163, N-cyclopropyl-4-{8-[(2,2-difluoroethyl)amino]-6-(2,3-difluorophenoxy)imidazo[1,2-a]pyridin-3-yl}-2-methylbenzamide]",1.3 nM
20,"Cc1cc(-c2cnc3c(NCCC(F)(F)F)cc(Oc4ccc(OC(F)(F)F)cc4)cn23)ccc1C(=O)NC1(C#N)CC1 [Example 65, N-(1-cyanocyclopropyl)-2-methyl-4-{6-[4-(trifluoromethoxy)phenoxy]-8-[(3,3,3-trifluoropropyl)amino]imidazo[1,2-a]pyridin-3-yl}benzamide]",131 nM
21,"CNC(=O)c1ccc(-c2cnc3c(NCCC(F)(F)F)cc(-c4ccncc4)cn23)cc1C [Example 88, N,2-dimethyl-4-{6-(pyridin-4-yl)-8-[(3,3,3-trifluoropropyl)amino]imidazo[1,2-a]pyridin-3-yl}benzamide]",9.8 nM
22,"Cc1cc(-c2cnc3c(NCCC(F)(F)F)cc(Oc4cccc(F)c4F)cn23)ccc1C(=O)NC1CC1 [Example 30, N-cyclopropyl-4-{6-(2,3-difluorophenoxy)-8-[(3,3,3-trifluoropropyl)amino]imidazo[1,2-a]pyridin-3-yl}-2-methylbenzamide]",0.4 nM
23,"CNC(=O)c1ccc(-c2cnc3c(NCCC(F)(F)F)cc(Oc4cc(F)ccc4C)cn23)cc1C [Example 25, 4-{6-(5-Fluoro-2-methylphenoxy)-8-[(3,3,3-trifluoropropyl)amino]imidazo[1,2-a]pyridin-3-yl}-N,2-dimethylbenzamide]",2.9 nM
24,"CNC(=O)c1ccc(-c2cnc3c(NCCC(F)(F)F)cc(-c4ccccc4OC)cn23)cc1C [Example 81, 4-{6-(2-Methoxyphenyl)-8-[(3,3,3-trifluoropropyl)amino]imidazo[1,2-a]pyridin-3-yl}-N,2-dimethylbenzamide]",19.8 nM
25,"CCNC(=O)c1ccc(-c2cnc3c(NCCC(F)(F)F)cc(Oc4cccc(OC(F)(F)F)c4)cn23)cc1C [Example 77, N-ethyl-2-methyl-4-{6-[3-(trifluoromethoxy)phenoxy]-8-[(3,3,3-trifluoropropyl)amino]imidazo[1,2-a]pyridin-3-yl}benzamide]",51 nM
